Entries after “also recorded” stand apart in the source; their conditions may differ.
Assays:
rat carotid arteries = test: Induction of neointima formation in rat carotid artery by topical application; format: in vivo
Description: Briefly, the right carotid artery of anesthetized adult male Sprague-Dawley rats (250-300 g) was surgically exposed. The caudal origin of the common carotid artery was ligated using a vessel clip, followed by exposure and ligation of the internal carotid artery above the bifurcation. The external carotid artery was exposed, and a polyethylene catheter was inserted such that it never reached the common carotid artery, thereby avoiding mechanical injury to the vessel. The clip occluding the common carotid artery was temporarily released, and the vessel was rinsed with a retrograde injection of 500 μl physiological saline to remove residual blood. The vessel was again clipped, and 100 μl of treatment solution was injected. After 60 min of incubation, the cannula was withdrawn, the external carotid artery was ligated, and blood flow was restored. Animals were allowed to recover and were killed 7-56 d later by intracardiac perfusion of 10% buffered formaldehyde (pH 7.4). The common carotid artery from the […] to the bifurcation was dissected, embedded in paraffin, and processed for histological analysis. Five μm-thick sections were cut and stained with hematoxylin and eosin or Masson's trichrome stain. Intima to media ratios were quantified using an image analysis system (Scion Image CMS-800).

PPARγ = molecular target: T1, PPARγ (Homo sapiens, UniProt P37231); test: PPRE-Acox-Rluc reporter gene assay in CV-1 cells transfected with PPARγ; format: cell-based; conditions: for activation of the PPRE-Acox-Rluc reporter: 10 μM, 20 h, CV-1 cells (FIG. 6C)
T1 construct: expressed in transfected cells; host or cells: CV-1 cells, transient transfection with LipofectAMINE 2000
T1 sequence (P37231 1-505): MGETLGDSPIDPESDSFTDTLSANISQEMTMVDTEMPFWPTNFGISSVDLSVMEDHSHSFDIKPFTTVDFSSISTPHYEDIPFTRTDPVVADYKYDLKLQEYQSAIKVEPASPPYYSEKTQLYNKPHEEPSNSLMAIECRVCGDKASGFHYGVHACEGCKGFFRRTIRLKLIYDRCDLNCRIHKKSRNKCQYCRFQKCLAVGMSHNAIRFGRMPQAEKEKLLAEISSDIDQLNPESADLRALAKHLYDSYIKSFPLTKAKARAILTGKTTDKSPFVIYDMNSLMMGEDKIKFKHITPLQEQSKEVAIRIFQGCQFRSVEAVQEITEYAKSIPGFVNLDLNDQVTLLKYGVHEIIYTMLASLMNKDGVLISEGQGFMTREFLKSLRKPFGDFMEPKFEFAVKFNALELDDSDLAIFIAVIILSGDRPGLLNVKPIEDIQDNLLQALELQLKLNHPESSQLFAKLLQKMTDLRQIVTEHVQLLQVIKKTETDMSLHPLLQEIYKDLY
T1 sequence (P19793 1-462 partner): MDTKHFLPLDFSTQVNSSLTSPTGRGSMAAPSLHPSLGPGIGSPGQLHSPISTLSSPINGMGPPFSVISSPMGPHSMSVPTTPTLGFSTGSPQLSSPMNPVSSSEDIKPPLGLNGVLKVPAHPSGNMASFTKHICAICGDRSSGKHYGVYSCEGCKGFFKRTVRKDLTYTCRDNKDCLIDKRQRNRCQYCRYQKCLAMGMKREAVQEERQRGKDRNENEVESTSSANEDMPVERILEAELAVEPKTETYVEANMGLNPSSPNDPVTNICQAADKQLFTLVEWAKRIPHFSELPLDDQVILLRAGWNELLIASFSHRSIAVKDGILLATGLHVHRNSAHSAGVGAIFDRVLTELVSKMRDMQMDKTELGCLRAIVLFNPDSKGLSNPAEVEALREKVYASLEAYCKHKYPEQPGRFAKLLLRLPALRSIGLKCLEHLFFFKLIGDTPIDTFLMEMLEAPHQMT
Protocol: CV-1 cells were plated in 96-well plates (5×10^3 cells per well) in DME supplemented with 10% FBS. […] Twenty four hours after transfection, cells were treated with 1% FBS-supplemented OptiMEMI™ (Invitrogen) containing DMSO or test compound (10 μM) in DMSO for 20 h. Luciferase and β-galactosidase activities were measured with the Steady-Glo® Luciferase Assay System (Promega) and the Galacto-Light Plus™ System (Applied Biosystems), respectively. Samples were run in quadruplicate, and the mean±SE were calculated. Data are representative of at least three independent transfections. Student's t test was used for null hypothesis testing, and P<0.05 was considered significant.

[1] = tested on: CD36(−273)-Rluc reporter gene; test: CD36(−273)-Rluc reporter gene (with PPRE) in CV-1 cells; format: cell-based; conditions: 10 μM, CV-1 cells (FIG. 7E)
Protocol: Therefore, the investigators compared the unique in vivo neointima-eliciting lysophosphatidic acid structure-activity relationship with that of PPARγ using an in vitro assay that utilizes an acyl-coenzyme A oxidase-luciferase (PPRE-Acox-Rluc) reporter gene construct containing a peroxisome proliferator-activated receptor response element. CV-1 cells were plated in 96-well plates (5×10^3 cells per well) in DME supplemented with 10% FBS. The next day, the cells were transiently transfected with 125 ng of pGL3-PPRE-acyl-CoA oxidase (Acox)-renilla luciferase), or 125 ng pGL3-CD36(−273), or pGL3-CD36(−261), 62.5 ng of pcDNAI-PPARγ, and 12.5 ng of pSV-β-galactosidase (Promega) using LipofectAMINE™ 2000 (Invitrogen). Twenty four hours after transfection, cells were treated with 1% FBS-supplemented OptiMEMI™ (Invitrogen) containing DMSO or test compound (10 μM) in DMSO for 20 h. Luciferase and β-galactosidase activities were measured with the Steady-Glo® Luciferase Assay System (Promega) and the Galacto-Light Plus™ System (Applied Biosystems), respectively. Samples were run in quadruplicate, and the mean±SE were calculated. Data are representative of at least three independent transfections. Student's t test was used for null hypothesis testing, and P<0.05 was considered significant.

[2] = tested on: vascular smooth muscle cells; test: Phenotypic modulation and dedifferentiation of cultured VSMCs (morphology, hCAD mRNA); format: cell-based, rat
Protocol: Expression of lysophosphatidic acid-specific G protein-coupled plasma membrane receptors in rat carotid arteries was examined by RT-PCR as described earlier by Wang et al. (2002). To quantify heavy caldesmon mRNA, quantitative PCR was performed applying the real-time SYBR Green PCR method using a Sequence Detection System Model 7700 (Applied Biosystems) instrument. Rat heavy caldesmon and GAPDH (reference control mRNA)-specific primers were designed with Primer Express Software (Applied Biosystems), and forward and reverse primers were as follows: 5′-[…]-3′ (SEQ ID NO:1) and 5′-[…]-3′ (SEQ ID NO:2) for heavy caldesmon; 5′-[…]-3′ (SEQ ID NO:3) and 5′-[…]-3′ (SEQ ID NO:4) for GAPDH. Amplification reaction was performed with SYBR Green PCR Master Mix (Applied Biosystems) following the manufacturer's protocol. mRNA abundance calculation was based on Ct values as described previously (Wang et al., 2002). The expression level of heavy caldesmon mRNA was normalized to GAPDH mRNA. Each PCR reaction was performed at least three times, and the result was expressed as mean±SEM. Statistical comparison of mRNA expression was evaluated by ANOVA, and P<0.05 was considered statistically significant.
It has been reported that unsaturated lysophosphatidic acid species induced phenotypic modulation of cultured vascular smooth muscle cells (VSMCs). Because the neointimal response and PPARγ display a similar selectivity for unsaturated lysophosphatidic acid, that activation of PPARγ plays a role in the phenotypic dedifferentiation is hypothesized herein. This hypothesis was tested in a culture system in which IGF-1 maintains the differentiated spindle shape of vascular smooth muscle cells as indicated by high levels of heavy caldesmon (hCAD) mRNA expression.

[3] = 10 μM, rat carotid artery model (FIG. 3C)
[4] = 10 ng/ml, 2-wk period (FIG. 5B)

2,3-cyclic phosphatidic acid [cPA 18:1]
neointima formation (rat carotid arteries; [3]): did not elicit detectable neointima | neointima formation (rat carotid arteries; 10 μM, rat carotid artery model (FIG. 3C), listed as cPA): inactive | activation of the PPRE-Acox-Rluc reporter (PPARγ): inactive

3-O-octadecenyl-glycerophosphate [3AGP]
neointima formation (rat carotid arteries; [3]): modestly effective

CCCCCCCCC=CCCCCCCCCOCC(O)COP(=O)(O)O (centres unmarked) [1AGP, 1-octadecenyl-glycerophosphate]
neointima formation (rat carotid arteries; [3]): highly effective | stimulation of CD36(−273)-Rluc reporter gene [1]: higher stimulation

CCCCCCCCCCCCCCCCOCC(COP(=O)([O-])OCC[N+](C)(C)C)OC(=O)CCCCCCCC(=O)O (centres unmarked) [AZ-PC, 1-O-hexadecyl-2-azaleoyl-phosphatidylcholine]
neointima formation (rat carotid arteries; after 2 weeks (FIG. 6B)): caused neointima formation

O=C(Nc1ccccc1)c1cc([N+](=O)[O-])ccc1Cl [GW9662]
inhibition of neointima formation elicited by lysophosphatidic acid 20:4 (rat carotid arteries; 5 μM 30 min before and coapplied with 2.5 μM LPA 20:4): completely abolished neointima formation; also recorded: inhibited | effect on vessels from animals treated with SOV-PC and saturated lysophosphatidic acid species (rat carotid arteries; FIG. 6B): had no effect | inhibition of AZ-PC-induced neointima formation (rat carotid arteries; FIG. 6B): inhibited by GW9662 | inhibition of neointima formation in response to LPA 18:2 (rat carotid arteries; GW9662 pretreatment (FIG. 6B)): inhibited | inhibition of neointima formation in response to minimally oxidized LDL (rat carotid arteries; GW9662 pretreatment (FIG. 6B)): inhibited | inhibition of Rosi-induced lesion formation (rat carotid arteries; GW9662 pretreatment and coapplication (FIG. 6B)): fully blocked | inhibition of lysophosphatidic acid 20:4-induced PPRE-Acox-Rluc reporter gene expression (PPARγ; 10 μM (FIG. 6D)): abolished | effect on LPA 20:4- and Rosi-induced flattened morphology of VSMCs ([2]; 200 nM GW9662): reversed this effect | effect on hCAD mRNA expression ([2]; 200 nM pretreatment, quantitative RT-PCR (FIG. 8I)): caused a significant increase in hCAD mRNA expression | effect on morphology of IGF-1- and LPA 20:0-treated VSMC cultures ([2]; 200 nM, 30 min pretreatment): did not affect the spindle-like morphology

CCCCCCCCCCCCCCCCCC(=O)OCC(O)COP(=O)(O)O (centres unmarked) [LPA 18:0]
neointima formation (rat carotid arteries; [3]): did not elicit detectable neointima

CCCCCCCCCCCCC/C=C/[C@@H](O)[C@@H](N)COP(=O)(O)O [S1P, sphingosine 1-phosphate]
activation of the PPRE-Acox-Rluc reporter (PPARγ): inactive

CCCCCCCCCCCCCCCCCC(=O)OC[C@H](COP(=O)([O-])OCC[N+](C)(C)C)OC(=O)CCCC=O [SOV-PC, stearoyl-oxovaleryl phosphatidylcholine]
neointima formation (rat carotid arteries; after 2 weeks (FIG. 6B)): failed to stimulate neointima formation

CCCCCCCCCCCCCCCC(=O)O[C@H](COP(=O)(O)O)C(F)F [XY4, 1,1-difluorodeoxy-(2R)-palmitoyl-sn-glycero-3-phosphate]
neointima formation (rat carotid arteries; 10 μM, 2-wk period (FIG. 5B)): showed neointima formation

CCCCCCCCCCCCCCCC(=O)OC[C@@H](F)COP(=O)(O)O [XY8, 1-palmitoyl-(2R)-fluorodeoxy-sn-glycero-3-phosphate]
neointima formation (rat carotid arteries; 10 μM, 2-wk period (FIG. 5B)): showed neointima formation

CCCCCCCCCCCCCCCCOC[C@@H](O)COP(=O)(O)O [hexadecyl-GP]
activation of the PPRE-Acox-Rluc reporter (PPARγ): activated the reporter gene

CCCCCCCCCCCCCCCCCCOC[C@@H](O)COP(=O)(O)O [octadecyl-GP]
activation of the PPRE-Acox-Rluc reporter (PPARγ): activated the reporter gene

EGF: epidermal growth factor (NSDSECPLSHDGYCLHDGVCMYIEALDKYACNCVVGYIGERCQYRDLKWWELR; UniProt P01133 971-1023, looked up)
neointima formation (rat carotid arteries; 50 ng/ml, 2-wk period (FIG. 5B)): failed to induce detectable neointima | neointima formation (rat carotid arteries; 100 ng/ml (summary)): ineffective in inducing neointima formation

LPA 18:1
neointima formation (rat carotid arteries; 10 μM, 2-wk period (FIG. 5B)): showed neointima formation | extent of neointima development, concentration dependence (rat carotid arteries; 2 wk after treatment (FIG. 4B)): concentration dependent up to 10 μM | concentration at which neointima development reached statistical significance (rat carotid arteries; P<0.01, FIG. 4B): 5 µM

PDGF
neointima formation (rat carotid arteries; [4]): ineffective in inducing neointima formation; also recorded: failed to induce detectable neointima

VEGF
neointima formation (rat carotid arteries; [4]): ineffective in inducing neointima formation; also recorded: failed to induce detectable neointima

dioctylglycerol pyrophosphate [DGPP]
inhibition of lysophosphatidic acid 20:4-induced neointima formation (rat carotid arteries; FIG. 6A): modest inhibition

lysophosphatidic acid
effect of added albumin on compound-induced activation of the PPRE-Acox-Rluc reporter gene (PPARγ; albumin 0.04-4% wt/vol, concentration-dependent (FIG. 7G)): inhibited | concentrations sufficient to cause significant activation of the reporter (PPARγ; dose-response (FIGS. 6E and F)): high nanomolar concentrations | effect of added rat serum on compound-induced activation of the PPRE-Acox-Rluc reporter gene (PPARγ; rat serum 1-20% vol/vol, concentration-dependent (FIG. 7H)): inhibited
